According to patent US20230263742A1, “A LIPID” (Stemirna Therapeutics Co., Ltd., priority 2021, published 2023):

tested on: Balb/C mice; assay: Luc expression in injection site and liver site after intramuscular administration (Example 5); format: in vivo; conditions: 5 μg Luc mRNA-LNP (DSPC) intramuscularly, Balb/C mice n=3, 6 h
Description: Further bioluminescence studies were performed to investigate the delivery efficiency of nanoparticle compositions including various lipid compounds according to the present invention. The formulations containing reference cationic lipid M62, M63, M118, and M119 (corresponding to Compound 62, 63, 118, and 119 in PCT/US2018/022717 (WO2018/170306), respectively) were evaluated for comparison. Nanoparticle compositions including DSPC as an optimized phospholipid, cholesterol as a structural lipid, PEG-DMG as a PEG lipid, an RNA, and a compound above mentioned were prepared according to or via methods similar to those described in Examples 1 and 2. The ratios of the lipids were 50:10:38.5:1.5 mol % for the lipid of the present invention: DSPC: cholesterol: PEG-DMG. 5 μg of LNP solution containing luciferase mRNA was administered intramuscularly to Balb/C mice (n=3). 6 hours after administration, mice were injected intraperitoneally with 0.15 mg/kg of D-luciferin substrate. Within 15 minutes after the injection of the substrate, the fluorescence signal intensity in injection site and liver site were tested under a small animal in vivo imaging instrument. Tables 3-4 summarize the fluorescence signal intensity of the nanoparticle compositions including present invention lipids and the reference compounds in injection site and liver site.

SMILES | Luc expression in injection site, I.M. injection site, 6 h (ratio relative to SW-II-134-3 set as 1) | Luc expression in liver site, Liver site upon I.M., 6 h (ratio relative to SW-II-137-1 set as 1)
CCCCCCCCC(CCCCCCCC)OC(=O)CCCCCCCN(CCO)CCCCCCCC(=O)OCCc1cccc(CCCC)c1 [SW-II-139-2] | 1.440 | 1.355
CCCCCCCCCOC(=O)CCCCCCCN(CCO)CCCCCCCC(=O)OCCCCc1ccc(CCCCCC)c(CCCCCC)c1 [SW-II-136-2] | 1.110 | 1.131
CCCCCCCCC(CCCCCCCC)OC(=O)CCCCCCCN(CCO)CCCCCCC(=O)OCc1ccc(CCCCCC)cc1 [SW-II-127] | 1.743 | –
CCCCCCCCC(CCCCCCCC)OC(=O)CCCCCCCN(CCO)CCCCCCCC(=O)OCCc1ccccc1CCCCCC [SW-II-140-1] | 2.450 | 3.224
CCCCCCCCC(CCCCCCCC)OC(=O)CCCCCCCN(CCO)CCCCCCCC(=O)OCc1cccc(CCCCCC)c1 [SW-II-122] | 1.321 | –
CCCCCCCCC(CCCCCCCC)OC(=O)CCCCCCCN(CCO)CCCCCCCC(=O)OCCCc1ccc(CCCC)cc1 [SW-II-137-1] | – | 1.000
CCCCCCCCCOC(=O)CCCCCCCN(CCO)CCCCCCCC(=O)OCCc1ccc(CCCC)c(CCCC)c1 [SW-II-134-3] | 1.000 | –
CCCCCCCCCOC(=O)CCCCCCCN(CCO)CCCCCCCC(=O)OCCc1ccc(CCCCCC)c(CCCCCC)c1 [SW-II-134-1] | 1.899 | –
CCCCCCCCC(CCCCCCCC)OC(=O)CCCCCCCN(CCO)CCCCCCCC(=O)OCCCCc1ccc(CCCC)cc1 [SW-II-138-1] | 1.972 | 1.430
CCCCCCCCCOC(=O)CCCCCCCN(CCO)CCCCCCCC(=O)OCCc1ccc(CCCCCCCC)c(CCCCCCCC)c1 [SW-II-134-2] | 1.734 | –
CCCCCCCCC(CCCCCCCC)OC(=O)CCCCCCCN(CCO)CCCCCCCC(=O)OCCc1ccccc1CCCC [SW-II-140-2] | 2.257 | 6.991
CCCCCCCCC(CCCCCCCC)OC(=O)CCCCCCCN(CCO)CCCCCCCC(=O)OCCCc1ccc(CCCCC)cc1 [SW-II-137-2] | – | 1.206
CCCCCCCCC(CCCCCCCC)OC(=O)CCCCCCCN(CCO)CCCCCCCC(=O)OCCCCc1ccc(CCCCC)cc1 [SW-II-138-2] | 2.826 | 3.318
CCCCCCCCC(CCCCCCCC)OC(=O)CCCCCCCN(CCO)CCCCCCCC(=O)OCCc1cccc(CCCCCC)c1 [SW-II-139-1] | 1.807 | 2.355
CCCCCCCCC(CCCCCCCC)OC(=O)CCCCCCCN(CCO)CCCCCCCC(=O)OCCCCc1ccc(CCCCCC)cc1 [SW-II-138-3] | 1.294 | 2.850
CCCCCCCCC(CCCCCCCC)OC(=O)CCCCCCCN(CCO)CCCCCCCC(=O)OCCCc1ccc(CCCCCC)cc1 [SW-II-137-3] | 1.358 | 1.981
CCCCCCCCCOC(=O)CCCCCCCN(CCO)CCCCCCCC(=O)OCc1ccc(CCCCCC)c(CCCCCC)c1 [SW-II-115] | 1.046 | –
CCCCCCCCCOC(=O)CCCCCCCN(CCO)CCCCCCCC(=O)OCCCc1ccc(CCCCCCC)c(CCCCCCC)c1 [SW-II-135-2] | 1.028 | –
CCCCCCCCCOC(=O)CCCCCCCN(CCO)CCCCCCCC(=O)OCCCc1ccc(CCCCC)c(CCCCC)c1 [SW-II-135-1] | 1.771 | –
